Laboratory results from US10736908B2, “Antiviral aryl-amide phosphodiamide compounds” (Merck Sharp & Dohme Corp., priority 2016, dated 2020).
Read-outs that look alike come from different tables or passages of the source.

Legend:
[1] = Prodrug stability assay in bio-relevant media (FaSSIF with Pancreatin); assay type: in vitro ADME; details: HPLC peak area of prodrug at 5 h divided by that at 0 h; 0.5 mg/mL Pancreatin in FaSSIF, 37° C.
Method: Prodrug Stability Assay in Bio-Relevant Media
The following assay was employed to evaluate the stability of the prodrugs in simulated gastrointestinal tract conditions. Preparation of fasted state simulated intestinal fluid (FaSSIF) using Phares SIF Powder was carried out according to protocols from Phare Drug Delivery AG (Baselland, Switzerland). For sample preparation, 10 μL stock solutions (10 mM) of prodrug substance in DMSO was added to 990 μL of 0.5 mg/mL Pancreatin solution (Fisher CAS #8049-47˜6) in FaSSIF. Two samples were prepared for each compound. If the sample was a clear solution, it was directly analyzed by HPLC. If the sample was not clear, the sample was diluted with 100% MeCN, maintained at 37° C. and observed 5 h later. If the sample was clear, HPLC analysis was directly performed. If the sample was still not clear, the sample was diluted with 100% ACN and assayed by HPLC. All the samples were vortexed for 3 min and observed before injection. For the diluted samples, the area is multiplied by a dilution factor when the data is analyzed. The analysis was carried out with an Agilent 1100 series HPLC with autosampler. The column was a Poroshell 120 EC-C18, 4.6×50 mm, 2.7 μm. The flow rate was 1.8 mL/min, and the injection volume was 5 or 10 μL. UV detection was in the range 210-400 nm. The mobile phase consisted of solvent A (water plus 10 mM tetrabutylammonium bromide) and solvent B (acetonitrile) with a gradient of: 90% solvent A at 0 min, changing to 95% solvent B over 6 min, maintaining for 1.5 min, then reverting to 90% solvent A over 1.6 min. The HPLC peak area of the prodrug at 5 h was divided by the HPLC peak area of the prodrug at 0 h, to generate the % claimed parent ratio, which is summarized in Table 2 for gastrointestinal (GI) Tract stability.

HIV-1 (H9/IIIB strain) = assay: Multiple round HIV-1 infection assay (Viking assay) in MT4-GFP cells; assay type: cell-based; details: HIV-1 replication in MT4-GFP cells
Method: Assessing Antiviral Potency in a Multiple Round HIV-1 Infection Assay (Viking Assay)
The antiviral activity of the tenofovir prodrugs of the Examples herein was assessed in an assay that measures the rate of replication of HIV in cell culture, termed the Viking assay (VIral KINetics in Green cells) and performed as follows. HIV-1 replication was monitored using MT4-gag-GFP clone D3 (hereafter designated MT4-GFP), which are MT-4 cells modified to harbor a GFP reporter gene, the expression of which is dependent on the HIV-1 expressed proteins tat and rev. Productive infection of an MT4-GFP cell with HIV-1 results in GFP expression approximately 24 h post-infection. MT4-GFP cells were maintained at 37° C./5% CO2/90% relative humidity in RPMI 1640 supplemented with 10% fetal bovine serum, 100 U/ml penicillin/streptomycin, and 400 μg/ml G418 to maintain the reporter gene. For infections, MT4-GFP cells were placed in the same medium lacking G418 and infected overnight with HIV-1 (H9/IIIB strain) virus at an approximate multiplicity of infection of 0.01 in the same incubation conditions. […] Compound plates were prepared by dispensing compounds dissolved in DMSO into wells of 384 well poly-D-lysine-coated plates (0.2 μl/well) using an ECHO acoustic dispenser. Each compound was tested in a 10-point serial 3-fold dilution (typical final concentrations: 8.4 μM-0.42 nM). Controls included no inhibitor (DMSO only) and a combination of three antiviral agents (efavirenz, indinavir, an in-house integrase strand transfer inhibitor at final concentrations of 4 μM each). Cells were added (50 μL/well) to compound plates and the infected cells were maintained at 37° C./5% CO2/90% relative humidity.
Infected cells were quantified at two time points, ˜48 h and ˜72 h post-infection, by counting the number of green cells in each well using an Acumen eX3 scanner. The increase in the number of green cells over ˜24 h period gives the reproductive ratio, R0, which is typically 5-15 and has been shown experimentally to be in logarithmic phase (data not shown). Inhibition of R0 is calculated for each well, and IC50s determined by non-linear 4-parameter curve fitting.

[2] = Human immunodeficiency virus 1, IIIB, 50% NHS (normal human serum), read-out: Viking, IC50 (50% NHS)
[3] = Human immunodeficiency virus 1, IIIB, head prints 100% NHS (normal human serum), read-out: Viking, IC50 (100% NHS)
[4] = 50% NHS (normal human serum), read-out: Viking, IC50 (50% NHS)
[5] = head prints 100% NHS (normal human serum), read-out: Viking, IC50 (100% NHS)

SMILES	GI Tract stability [1]	IC50 (HIV-1 (H9/IIIB strain); [2])	IC50 (HIV-1 (H9/IIIB strain); [3])	IC50 (HIV-1 (H9/IIIB strain); [4])	IC50 (HIV-1 (H9/IIIB strain); [5])
CC(C)OC(=O)C(C)(C)NP(=O)(CO[C@H](C)Cn1cnc2c(N)ncnc21)NC(=O)c1ccc(Cl)cc1 (single isomer, unassigned) [Example 1B]	95.48%	24.4 nM	6.9 nM	–	–
CCCCCOC(=O)C(C)(C)NP(=O)(CO[C@H](C)Cn1cnc2c(N)ncnc21)NC(=O)c1ccc(Cl)cc1 (single isomer, unassigned) [Example 3A]	99.9%	–	–	33.2 nM	5.1 nM
CCCCCOC(=O)C(C)(C)NP(=O)(CO[C@H](C)Cn1cnc2c(N)ncnc21)NC(=O)c1ccc(Cl)cc1 (single isomer, unassigned) [Example 3B]	75.98%	–	–	10.9 nM	2.3 nM
CCCOC(=O)C(C)(C)NP(=O)(CO[C@H](C)Cn1cnc2c(N)ncnc21)NC(=O)c1ccc(Cl)cc1 (single isomer, unassigned) [Example 4B]	84.76%	–	–	17.6 nM	3.6 nM
C[C@H](Cn1cnc2c(N)ncnc21)OCP(=O)(NC(=O)c1ccc(Cl)cc1)NC(C)(C)C(=O)OC1CCC1 (single isomer, unassigned) [Example 6B]	90.33%	–	–	13.5 nM	4.1 nM
C[C@H](Cn1cnc2c(N)ncnc21)OCP(=O)(NC(=O)c1ccc(Cl)cc1)NC(C)(C)C(=O)OC1CCOCC1 (single isomer, unassigned) [Example 9B]	99.1%	–	–	74.8 nM	16.9 nM
CC(C)OC(=O)C(C)(C)NP(=O)(CO[C@H](C)Cn1cnc2c(N)ncnc21)NC(=O)c1ccc(F)cc1 (single isomer, unassigned) [Example 10B]	99.96%	–	–	89.8 nM	25.7 nM
CCCCCOC(=O)C(C)(C)NP(=O)(CO[C@H](C)Cn1cnc2c(N)ncnc21)NC(=O)c1ccc(F)cc1 (single isomer, unassigned) [Example 11A]	72.61%	–	4.1 nM	15 nM	–
CC(C)OC(=O)C(C)(C)NP(=O)(CO[C@H](C)Cn1cnc2c(N)ncnc21)NC(=O)c1cnccn1 (single isomer, unassigned) [Example 14A]	–	–	–	1570 nM	284 nM
CC(C)OC(=O)C(C)(C)NP(=O)(CO[C@H](C)Cn1cnc2c(N)ncnc21)NC(=O)c1cnccn1 (single isomer, unassigned) [Example 14B]	–	–	–	314 nM	112 nM
CCCCCOC(=O)C(C)(C)NP(=O)(CO[C@H](C)Cn1cnc2c(N)ncnc21)NC(=O)c1cccs1 (single isomer, unassigned) [Example 15A]	95.44%	34.1 nM	8.4 nM	–	–
CCCCCOC(=O)C(C)(C)NP(=O)(CO[C@H](C)Cn1cnc2c(N)ncnc21)NC(=O)c1cccs1 (single isomer, unassigned) [Example 15B]	–	–	–	29.8 nM	8.1 nM
CCCCCOC(=O)C(C)(C)NP(=O)(CO[C@H](C)Cn1cnc2c(N)ncnc21)NC(=O)c1ccccc1OC (single isomer, unassigned) [Example 16A]	–	153 nM	13.3 nM	–	–
CCCCCOC(=O)C(C)(C)NP(=O)(CO[C@H](C)Cn1cnc2c(N)ncnc21)NC(=O)c1ccccc1OC (single isomer, unassigned) [Example 16B]	–	–	–	139 nM	15.5 nM
COc1ccc(C(=O)NP(=O)(CO[C@H](C)Cn2cnc3c(N)ncnc32)NC(C)(C)C(=O)OC(C)C)cc1 (single isomer, unassigned) [Example 17A]	–	–	–	54.3 nM	18.3 nM
COc1ccc(C(=O)NP(=O)(CO[C@H](C)Cn2cnc3c(N)ncnc32)NC(C)(C)C(=O)OC(C)C)cc1 (single isomer, unassigned) [Example 17B]	–	–	–	390 nM	157 nM
CCCCCOC(=O)C(C)(C)NP(=O)(CO[C@H](C)Cn1cnc2c(N)ncnc21)NC(=O)c1ccc(C)cc1 (single isomer, unassigned) [Example 18A]	–	–	–	35.4 nM	9 nM
CCCCCOC(=O)C(C)(C)NP(=O)(CO[C@H](C)Cn1cnc2c(N)ncnc21)NC(=O)c1ccc(C)cc1 (single isomer, unassigned) [Example 18B]	92.38%	–	–	10.5 nM	2 nM
CCCOC(=O)C(C)(C)NP(=O)(CO[C@H](C)Cn1cnc2c(N)ncnc21)NC(=O)c1ccccc1Cl (single isomer, unassigned) [Example 21B]	–	229 nM	33.6 nM	–	–
CCOC(=O)C(C)(C)NP(=O)(CO[C@H](C)Cn1cnc2c(N)ncnc21)NC(=O)c1ccc(C(C)(C)C)cc1 (single isomer, unassigned) [Example 22A]	–	–	–	48.1 nM	15.1 nM
CCOC(=O)C(C)(C)NP(=O)(CO[C@H](C)Cn1cnc2c(N)ncnc21)NC(=O)c1ccc(C(C)(C)C)cc1 (single isomer, unassigned) [Example 22B]	–	–	–	15.7 nM	5.8 nM
CCCOC(=O)C(C)(C)NP(=O)(CO[C@H](C)Cn1cnc2c(N)ncnc21)NC(=O)c1ccc(OC)cc1 (stereo partly drawn) [Example 2B, propyl 2-(((R)—((((R)-1-(6-amino-9H-purin-9-yl)propan-2-yl)oxy)methyl)(4-methoxy-benzamido)phosphoryl)amino)-2-methylpropanoate and propyl 2-(((S)—((((R)-1-(6-amino-9H-purin-9-yl)propan-2-yl)oxy)methyl(4-methoxybenzamido)phosphoryl)amino)-2-methylpropanoate]	–	69.8 nM	27.5 nM	–	–
CCCOC(=O)C(C)(C)NP(=O)(CO[C@H](C)Cn1cnc2c(N)ncnc21)NC(=S)c1ccc(Cl)cc1 (stereo partly drawn) [Example 19, propyl 2-((((((R)-1-(6-amino-9H-purin-9-yl)propan-2-yl)oxy)methyl)(4-chlorophenylthioamido)phosphoryl)amino)-2-methylpropanoate]	–	347 nM	32.1 nM	–	–
CC(C)OC(=O)C(C)(C)NP(=O)(CO[C@H](C)Cn1cnc2c(N)ncnc21)NC(=S)c1ccc(Cl)cc1 (stereo partly drawn) [Example 20, isopropyl 2-((((((R)-1-(6-amino-9H-purin-9-yl)propan-2-yl)oxy)methyl)(4-chlorophenylthioamido)phosphoryl)amino)-2-methylpropanoate]	–	494 nM	118 nM	–	–
